Patent US20260315467A1, “PHARMACEUTICAL COMBINATION OF FAK INHIBITOR AND EGFR-TKI, AND USE” (INXMED (NANJING) CO., LTD., priority 2022, published 2026)

How the values were obtained:
lung cancer KPL cells = assay: White light microscope observation of lung cancer KPL cells after 48 h drug incubation (Examples 1-3); assay type: cell-based
lung cancer cells HCC827 = assay: Apoptosis of HCC827 cells after FAK silencing combined with AZD9291 (Annexin V, flow cytometer); assay type: cell-based; details: FAK siRNA 50 nM, then 0.3 nM AZD9291, 48 hours
Description: In an in vitro assay, siRNA technology was used to reduce the expression level of FAK, which was combined with AZD9291 for 48 hours; a flow cytometer was used to detect the apoptosis in control and FAK-silenced cells.
(§1) Assay antibodies: Recombinant Alexa Fluor® 647 Anti-Calreticulin antibody (Abcam, ab196159), Annexin V apoptosis detection kit (Invitrogen, A35110).
HCC827 cells were transfected with control siRNA or FAK siRNA at a final concentration of 50 nM, respectively. After 24 hours of transfection, 0.3 nM AZD9291 was added and the cells were treated for 48 hours. The cells were stained using the Annexin V kit and detected using a flow cytometer. The values of early and late apoptosis of the cells were compared with those of the DMSO control group, and Graphpad 8.0 was used for graphing.

Calreticulin = Calreticulin release and exposure in HCC827 cells after FAK silencing combined with AZD9291; assay type: cell-based; details: FAK siRNA 50 nM, then 0.3 nM AZD9291, 48 hours
Description: In an in vitro assay, siRNA technology was used to reduce the expression level of FAK, which was combined with AZD9291 for 48 hours; a flow cytometer was used to detect the expression of Calreticulin, the main target of ICD.
as §1
HCC827 cells were transfected with control siRNA or FAK siRNA at a final concentration of 50 nM, respectively. After 24 hours of transfection, 0.3 nM AZD9291 was added and the cells were treated for 48 hours. The Calreticulin antibody was used for fluorescent staining, and the staining results were analyzed by a flow cytometer.

colon cancer MC38 cell = assay: In vivo anti-tumor efficacy in subcutaneous allograft tumor model of colon cancer MC38 cell in C57BL/6 mice; set-up: species or system mouse; details: PD-L1 antibody 5 mg/kg i.p. BIW
Description: Mice: Female C57BL/6 mice aged 6-8 weeks were purchased from Shanghai Slack Laboratory Animal Co., Ltd. After the animals arrived, they were raised for acclimatization in the assay environment before the assay. The animals were raised in cages (5 animals per cage) with IVC (independent air supply system) in a SPF animal room. All the cages, padding and drinking water were sterilized before use. All the experimenters wore protective clothing and latex gloves when operating in the animal room. The animal information card for each cage indicated the number, sex, strain, receiving date, administration plan, assay number, group and assay start date of the animals in the cage. […]
Colorectal cancer cells MC38 (from Nanjing Kebai Biotechnology Co., Ltd., article number: CBP60825) were maintained and passaged by InxMed (Nanjing) Co., Ltd. The cells were cultured in monolayer in vitro, and the culture conditions were DMEM medium with 10% fetal bovine serum, 37° C. and 5% CO2 incubator. […] When the cells were in exponential growth period and the saturation reached 80% to 90%, the cells were collected, counted and inoculated. […]
The diameter of a tumor was measured with a vernier caliper 3 times a week. […]
Referring to the tumor volume on the first day after grouping, the tumor growth inhibition rate TGI (%) was calculated according to the following formula. […]

[1] = Example 3, IN10018 10 μM, Alflutinib 4.7 μM, or both
[2] = Example 1, IN10018 10 μM, AZD9291 10 μM, or both
[3] = Example 2, IN10018 10 μM, Almonertinib 4.7 μM, or both

Compound | condition of cells under microscope (lung cancer KPL cells; [1]) | condition of cells under microscope (lung cancer KPL cells; [2]) | condition of cells under microscope (lung cancer KPL cells; [3]) | late apoptosis in the FAK silencing group compared with the control group (lung cancer cells HCC827) | release and exposure of Calreticulin after FAK silencing (Calreticulin) | TGI (colon cancer MC38 cell; day 14, AZD9291 20, IN10018 25 mg/kg p.o. QD) [%] | Tumor volume on day 14 (colon cancer MC38 cell; day 14 after group administration, AZD9291 20, IN10018 25 mg/kg p.o. QD, mean ± standard error of the mean) [mm^3]
C=CC(=O)Nc1cc(Nc2nccc(-c3cn(C)c4ccccc34)n2)c(OCC(F)(F)F)nc1N(C)CCN(C)C [Alflutinib] | poor condition |  |  |  |  |  | 
COc1cc(C(=O)NC2CCN(C)CC2)c(F)cc1Nc1ncc(C(F)(F)F)c(Oc2cccc3c2C(=O)N(C)C3)n1 [IN10018] | better condition | better condition | better condition |  |  |  | 
C=CC(=O)Nc1cc(Nc2nccc(-c3cn(C)c4ccccc34)n2)c(OC)cc1N(C)CCN(C)C [AZD9291, Osimertinib] |  | poor condition |  | significantly enhanced | significantly enhanced | 24.4 | 1518.1±728.8
C=CC(=O)Nc1cc(Nc2nccc(-c3cn(C4CC4)c4ccccc34)n2)c(OC)cc1N(C)CCN(C)C [Almonertinib] |  |  | poor condition |  |  |  | 
